# Where two headings read alike, the source gives them in different places.
# Experiments:
# [1] = target: MELK (Homo sapiens, UniProt Q14680); assay: Kinase assay: MELK activity, phosphorylation of FITC-labeled histone H3 peptide measured by IMAP fluorescence polarization; assay type: biochemical; conditions: read-out: IC50 (μM) (kinase assay)
# How it was run: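 Substrate is FITC-labeled histone H3 peptide. Compounds come from a 12.5 mM DMSO stock, diluted so assay DMSO is 1%. The stop step adds threefold-volume progressive binding solution, followed by 0.5 h at room temperature and an FP read.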
# [2] = test system: T47D cells; assay: Cell-based assay: anti-proliferative activity, Cell Counting Kit-8, 72 hours (T47D); conditions: Homo sapiens, T47D, 72 h
# How it was run: (§1)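 IC50 values come from CCK-8 growth measurements taken 72 hours post-treatment of plated cells with test compounds. Expression of MELK across the panel was assessed through immunoblot of unfractionated lysates.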
# [3] = test system: A549 cells; assay: Cell-based assay: anti-proliferative activity, Cell Counting Kit-8, 72 hours (A549); conditions: 72 hours
# How it was run: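 A549 cells seeded in 96-well plates and exposed to candidate inhibitors for 72 hours. Growth measured with Cell Counting Kit-8; IC50 values calculated from the dose response.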
# [4] = test system: HT-1197 cells; assay: Cell-based assay: anti-proliferative activity, Cell Counting Kit-8, 72 hours (HT-1197, negative control without MELK expression); conditions: Homo sapiens, HT1197, 72 h, HT1197 cells (negative control, no MELK expression), 72 hours
# How it was run: as §1
# [5] = test system: DU4475 cells; assay: Cell-based assay: anti-proliferative activity, Cell Counting Kit-8, 72 hours (DU4475)
# MELK, sequence (Q14680 whole entry, looked up): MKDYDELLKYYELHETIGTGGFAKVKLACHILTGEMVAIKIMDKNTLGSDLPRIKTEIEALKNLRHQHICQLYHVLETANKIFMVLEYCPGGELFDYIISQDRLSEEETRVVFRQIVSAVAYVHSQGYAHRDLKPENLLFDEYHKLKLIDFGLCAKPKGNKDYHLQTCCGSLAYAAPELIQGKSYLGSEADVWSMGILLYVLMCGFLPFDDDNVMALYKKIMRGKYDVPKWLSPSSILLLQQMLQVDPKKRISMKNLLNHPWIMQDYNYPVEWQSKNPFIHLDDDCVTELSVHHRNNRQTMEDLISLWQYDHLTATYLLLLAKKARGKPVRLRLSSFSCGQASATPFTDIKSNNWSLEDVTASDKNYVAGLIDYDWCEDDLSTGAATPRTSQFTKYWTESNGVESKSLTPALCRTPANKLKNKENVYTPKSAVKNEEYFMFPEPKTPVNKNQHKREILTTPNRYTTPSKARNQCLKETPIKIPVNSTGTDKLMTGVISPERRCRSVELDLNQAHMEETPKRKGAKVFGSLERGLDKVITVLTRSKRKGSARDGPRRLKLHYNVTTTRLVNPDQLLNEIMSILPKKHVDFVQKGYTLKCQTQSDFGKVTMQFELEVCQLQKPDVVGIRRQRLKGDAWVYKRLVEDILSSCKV
SMILES,IC50 [1] [µM],IC50 [2] [µM],"IC50 ([3]; Homo sapiens, A549, 72 h) [µM]",IC50 [4] [µM],"IC50 ([5]; Homo sapiens, DU-4475, 72 h) [µM]",IC50 [3] [µM],IC50 [5] [µM]
"N[C@H]1CCCN(c2ccc(Nc3c(C(=O)C4CC4)cnc4ccc(-c5cc(F)c(O)c(Cl)c5)cc34)cn2)C1 [Example 648, (S)-(4-(6-(3-aminopiperidin-1-yl)pyridin-3-ylamino)-6-(3-chloro-5-fluoro-4-hydroxyphenyl)quinolin-3-yl)(cyclopropyl)methanone]",0.0019,0.0095,0.013,0.28,0.0046,,
"N[C@H]1CCCN(c2ccc(Nc3c(C(=O)C4CC4)cnc4ccc(-c5cc(Cl)c(O)c(Cl)c5)cc34)cn2)C1 [Example 646, (S)-(4-(6-(3-aminopiperidin-1-yl)pyridin-3-ylamino)-6-(3,5-dichloro-4-hydroxyphenyl)quinolin-3-yl)(cyclopropyl)methanone]",0.0011,0.02,,0.56,,0.022,0.0035
COc1cc(-c2ccc3ncc(C(=O)C4CC4)c(N[C@H]4CC[C@H](CN5CCC(N(C)C)C5)CC4)c3c2)cc(Cl)c1O (stereo partly shown) [Example 668],0.0039,1,0.56,2.6,1.4,,
"CN[C@H]1CC[C@H](n2cc(Nc3c(C(=O)C4CC4)cnc4ccc(-c5cc(Cl)c(O)c(Cl)c5)cc34)cn2)CC1 [Example 705, Cyclopropyl{6-(3,5-dichloro-4-hydroxyphenyl)-4-[1-(trans-4-(methylamino)cyclohexyl)-1H-pyrazol-4-ylamino]quinolin-3-yl}methanone]",0.0017,0.24,1.7,10,0.072,,
"CCC(=O)c1cnc2ccc(-c3cc(Cl)c(O)c(Cl)c3)cc2c1N[C@H]1CC[C@H](CN(C)C)CC1 [Example 715, 1-(6-(3,5-dichloro-4-hydroxyphenyl)-4-((trans-4-((dimethylamino)methyl)cyclohexyl)amino)quinolin-3-yl)propan-1-one]",0.0015,0.087,0.11,0.84,0.046,,
CN(CCO)C[C@H]1CC[C@H](Nc2c(C(=O)C3CC3)cnc3ccc(-c4cc(Cl)c(O)c(Cl)c4)cc23)CC1 [Example 634],0.0008,0.099,0.095,0.75,0.042,,
"COc1cc(-c2ccc3ncc(C(=O)C4CC4)c(Nc4cccc(CCN(C)C)c4)c3c2)cc(Cl)c1O [Example 692, (6-(3-chloro-4-hydroxy-5-methoxyphenyl)-4-(3-(2-(dimethylamino)ethyl)phenylamino)quinolin-3-yl)(cyclopropyl)methanone]",0.0056,1,0.37,5.9,0.3,,
"COc1cc(-c2ccc3ncc(C(=O)C4CC4)c(Nc4ccc(CN5CCN(C)CC5)nc4)c3c2)cc(Cl)c1O [Example 683, (6-(3-chloro-4-hydroxy-5-methoxyphenyl)-4-(6-((4-methylpiperazin-1-yl)methyl)pyridin-3-ylamino)quinolin-3-yl)(cyclopropyl)methanone]",0.016,0.69,1.2,9.8,1.3,,
"O=C(c1cnc2ccc(-c3cc(F)c(O)c(Cl)c3)cc2c1Nc1ccc(CN2CCCC2)nc1)C1CC1 [Example 672, (6-(3-chloro-5-fluoro-4-hydroxyphenyl)-4-(6-(pyrrolidin-1-ylmethyl)pyridin-3-ylamino)quinolin-3-yl)(cyclopropyl)methanone]",0.014,0.39,0.17,3.2,0.16,,
"CC(=O)c1cnc2ccc(-c3cc(Cl)c(O)c(Cl)c3)cc2c1Nc1ccc(CN2CCN(C)CC2)cc1 [Example 654, 1-(6-(3,5-dichloro-4-hydroxyphenyl)-4-(4-((4-methylpiperazin-1-yl)methyl)phenylamino)quinolin-3-yl)ethanone]",0.0082,0.091,0.19,8.7,0.11,,
O=C(c1cnc2ccc(-c3cc(F)c(O)c(Cl)c3)cc2c1N[C@H]1CC[C@H](CNCCF)CC1)C1CC1 [Example 701],0.003,0.29,0.41,0.98,0.38,,
"CC(=O)c1cnc2ccc(-c3cc(Cl)c(O)c(Cl)c3)cc2c1Nc1ccc(N2CCCC(N)C2)nc1 (stereo not shown) [Example 681, 1-(4-(6-(3-aminopiperidin-1-yl)pyridin-3-ylamino)-6-(3,5-dichloro-4-hydroxyphenyl)quinolin-3-yl)ethanone]",0.00086,0.0046,0.017,0.25,0.0085,,
"CN(CCO)C[C@H]1CC[C@H](Nc2c(C(=O)C3CC3)cnc3ccc(-c4cc(F)c(O)c(Cl)c4)cc23)CC1 [Example 632, (6-(3-chloro-5-fluoro-4-hydroxyphenyl)-4-((trans-4-(((2-hydroxyethyl)(methyl)amino)methyl)cyclohexyl)amino)quinolin-3-yl)(cyclopropyl)methanone]",0.0031,0.069,0.1,0.72,0.069,,
"NCCOc1ccc(Nc2c(C(=O)C3CC3)cnc3ccc(-c4cc(Cl)c(O)c(Cl)c4)cc23)cn1 [Example 723, (4-(6-(2-Aminoethoxy)pyridin-3-ylamino)-6-(3,5-dichloro-4-hydroxyphenyl)quinolin-3-yl)(cyclopropyl)methanone]",0.0019,0.099,0.23,2.1,0.028,,
COc1cc(-c2ccc3ncc(C(=O)C4CC4)c(N[C@H]4CC[C@H](CN5CCC(O)C5)CC4)c3c2)cc(Cl)c1O (stereo partly shown) [Example 630],0.0023,0.41,0.19,3.6,0.17,,
"N[C@@H]1CCCN(c2ccc(Nc3c(C(=O)C4CC4)cnc4ccc(-c5cc(Cl)c(O)c(Cl)c5)cc34)cn2)C1 [Example 650, (R)-(4-(6-(3-aminopiperidin-1-yl)pyridin-3-ylamino)-6-(3,5-dichloro-4-hydroxyphenyl)quinolin-3-yl)(cyclopropyl)methanone]",0.001,0.0099,0.015,0.32,0.0072,,
"CC(=O)c1cnc2ccc(-c3cc(Cl)c(O)c(Cl)c3)cc2c1N[C@@H]1CC[C@@H](CN(C)C)C1 [Example 718, 1-(6-(3,5-dichloro-4-hydroxyphenyl)-4-((1R,3R)-3-((dimethylamino)methyl)cyclopentylamino)quinolin-3-yl)ethanone]",0.0055,0.36,0.44,2,0.19,,
"CN1CCCC(n2cc(Nc3c(C(=O)C4CC4)cnc4ccc(-c5cc(Cl)c(O)c(Cl)c5)cc34)cn2)C1 (stereo not shown) [Example 703, Cyclopropyl{6-(3,5-dichloro-4-hydroxyphenyl)-4-[1-(1-methylpiperidin-3-yl)-1H-pyrazol-4-ylamino]quinolin-3-yl}methanone]",0.0013,0.33,0.11,5.5,0.052,,
"COc1cc(-c2ccc3ncc(C(=O)C4CC4)c(Nc4ccc(N5CCC(O)C5)nc4)c3c2)cc(Cl)c1O (stereo not shown) [Example 669, (6-(3-chloro-4-hydroxy-5-methoxyphenyl)-4-(6-(3-hydroxypyrrolidin-1-yl)pyridin-3-ylamino)quinolin-3-yl)(cyclopropyl)methanone]",0.012,0.24,0.46,4.4,0.75,,
"CC(C)C(=O)c1cnc2ccc(-c3cc(F)c(O)c(Cl)c3)cc2c1Nc1ccc(N2CCNCC2)nc1 [Example 674, 1-(6-(3-chloro-5-fluoro-4-hydroxyphenyl)-4-(6-(piperazin-1-yl)pyridin-3-ylamino)quinolin-3-yl)-2-methylpropan-1-one]",0.0069,0.11,0.46,2.4,0.15,,
"CN(C)C1CCN(Cc2ccc(Nc3c(C(=O)C4CC4)cnc4ccc(-c5cc(F)c(O)c(Cl)c5)cc34)cc2)C1 (stereo not shown) [Example 696, (6-(3-chloro-5-fluoro-4-hydroxyphenyl)-4-(4-((3-(dimethylamino)pyrrolidin-1-yl)methyl)phenylamino)quinolin-3-yl)(cyclopropyl)methanone]",0.012,0.46,0.18,5.4,0.17,,
"COc1cc(-c2ccc3ncc(C(=O)C4CC4)c(Nc4ccc(N5CCC[C@@H](N)C5)nc4)c3c2)cc(Cl)c1O [Example 649, (R)-(4-(6-(3-aminopiperidin-1-yl)pyridin-3-ylamino)-6-(3-chloro-4-hydroxy-5-methoxyphenyl)quinolin-3-yl)(cyclopropyl)methanone]",0.0021,0.087,0.15,1.4,0.077,,
"COC1CCN(C2CCC(Nc3c(C(=O)C4CC4)cnc4ccc(-c5cc(F)c(O)c(Cl)c5)cc34)CC2)C1 (stereo not shown) [Example 686, (6-(3-chloro-5-fluoro-4-hydroxyphenyl)-4-(4-(3-methoxypyrrolidin-1-yl)cyclohexylamino)quinolin-3-yl)(cyclopropyl)methanone]",0.0035,0.19,0.17,1.1,0.16,,

# — US9120749B2, “Quinoline derivatives and MELK inhibitors containing the same” (ONCOTHERAPY SCIENCE, INC., priority 2010, dated 2015)
